Data reported in US11766425B2, “Antibiotic combination therapies” (BIOVERSYS AG, priority 2019, dated 2023).
Like-named read-outs stand apart in the source and are kept apart here. Bridge positions count the residues as written; N and C are the ends. Square brackets hold non-standard residues; d marks the D form. Peptide text beside a SMILES is read from it. Dab = NCC[C@H](N)C(=O)O

Legend:
Assay type in all cases: cell-based, Acinetobacter baumannii
[1] = system: panel of MDR clinical isolates of A. baumannii
Description: (§1) Checkerboards were performed according to the CLSI parameters used for microbroth dilution MIC5. CA-MHB, iron-depleted CA-MHB (ID-CA-MHB) or RPMI supplemented with 10% FCS medium were used as specified and ID-CA-MHB was prepared according to CLSI guidelines. […] FICI is calculated as follows: […]

[2] = system: A. baumannii LAC-4 strain; experiment: broth microdilution checkerboard MIC/synergy; details: for MICs alone: antibiotic alone
Description: as §1
The checkerboards were performed in CA-MHB or ID-CA-MHB for cefiderocol.

A. baumannii IHMA690517 = experiment: broth microdilution checkerboard MIC/synergy; details: strain IHMA690517; for MICs alone: antibiotic alone
Description: as §1

A. baumannii UNT239-1 = experiment: broth microdilution checkerboard MIC/synergy; details: strain UNT239-1; for MICs alone: antibiotic alone
Description: as §1

A. baumannii IHMA863866 = experiment: broth microdilution checkerboard MIC/synergy; details: strain IHMA863866; for MICs alone: antibiotic alone
Description: as §1

A. baumannii UNT191-1 = experiment: broth microdilution checkerboard MIC/synergy; details: strain UNT191-1; for MICs alone: antibiotic alone
Description: as §1

A. baumannii HUMC1 = experiment: broth microdilution checkerboard MIC/synergy; details: strain HUMC1; for MICs alone: antibiotic alone
Description: as §1

A. baumannii IHMA1013816 = experiment: broth microdilution checkerboard MIC/synergy; details: strain IHMA1013816; for MICs alone: antibiotic alone
Description: as §1

A. baumannii UNT238-1 = experiment: broth microdilution checkerboard MIC/synergy; details: strain UNT238-1; for MICs alone: antibiotic alone
Description: as §1

A. baumannii 402608-17 = experiment: broth microdilution checkerboard MIC/synergy; details: strain 402608-17; for MICs alone: antibiotic alone
Description: as §1

A. baumannii 402292-17 = experiment: broth microdilution checkerboard MIC/synergy; details: strain 402292-17; for MICs alone: antibiotic alone
Description: as §1

A. baumannii UNT087-1 = experiment: broth microdilution checkerboard MIC/synergy; details: strain UNT087-1; for MICs alone: antibiotic alone
Description: as §1

A. baumannii IHMA867231 = experiment: broth microdilution checkerboard MIC/synergy; details: strain IHMA867231; for MICs alone: antibiotic alone
Description: as §1

A. baumannii ACC00535 = experiment: broth microdilution checkerboard MIC/synergy; details: strain ACC00535; rifabutin/SPR741 in combination
Description: as §1

A. baumannii IHMA919656 = experiment: broth microdilution checkerboard MIC/synergy; details: strain IHMA919656; for MICs alone: antibiotic alone
Description: as §1

A. baumannii UNT091-1 = experiment: broth microdilution checkerboard MIC/synergy; details: strain UNT091-1; for MICs alone: antibiotic alone
Description: as §1

A. baumannii 401046-18 = experiment: broth microdilution checkerboard MIC/synergy; details: strain 401046-18; for MICs alone: antibiotic alone
Description: as §1

A. baumannii 401255-18 = experiment: broth microdilution checkerboard MIC/synergy; details: strain 401255-18; for MICs alone: antibiotic alone
Description: as §1

[3] = rifabutin/SPR741 in combination
[4] = second antibiotic in combination with rifabutin, LAC-4, CA-MHB
[5] = rifabutin/colistin checkerboard, CA-MHB
[6] = rifampicin/colistin checkerboard
[7] = rifabutin/colistin in combination, CA-MHB
[8] = rifampicin/colistin in combination

CC(=O)N[C@H](C(=O)N[C@H](CO)C(=O)N[C@H]1CCNC(=O)[C@H]([C@@H](C)O)NC(=O)[C@H](CCN)NC(=O)[C@H](CCN)NC(=O)[C@H](CC(C)C)NC(=O)[C@@H](Cc2ccccc2)NC(=O)[C@H](CCN)NC1=O)[C@@H](C)O [SPR741] (Ac-T[dS][Dab][Dab][dF]L[Dab][Dab]T; lactam 3-C)
8 mg/L: MICs combi / in combination (A. baumannii UNT087-1; [3]) | MICs combi / in combination (A. baumannii IHMA919656; [3]) | MICs combi / in combination (A. baumannii 401046-18; [3])
4 mg/L: MICs combi / in combination ([2]; strain LAC-4, rifabutin/SPR741 in combination) | MICs combi / in combination (A. baumannii UNT239-1; [3]) | MICs combi / in combination (A. baumannii UNT191-1; [3]) | MICs combi / in combination (A. baumannii HUMC1; [3]) | MICs combi / in combination (A. baumannii UNT238-1; [3]) | MICs combi / in combination (A. baumannii ACC00535) | MICs combi / in combination (A. baumannii 401255-18; [3])
88%: strains on which synergy was observed ([1]; rifabutin with SPR741)
2 mg/L: MICs combi / in combination (A. baumannii UNT091-1; [3])
32 mg/L: MICs combi / in combination (A. baumannii 402292-17; [3]) | MICs combi / in combination (A. baumannii IHMA867231; [3])
at least 8 fold: SPR741 concentration required to achieve synergy with rifabutin, relative to colistin ([1]; higher than the one of colistin)
16 mg/L: MICs combi / in combination (A. baumannii IHMA690517; [3]) | MICs combi / in combination (A. baumannii IHMA863866; [3]) | MICs combi / in combination (A. baumannii IHMA1013816; [3]) | MICs combi / in combination (A. baumannii 402608-17; [3])

colistin
512 mg/L: MICs alone (A. baumannii IHMA863866; [6]) | MICs alone (A. baumannii IHMA919656; [5]) | MICs alone (A. baumannii IHMA919656; [6])
1 mg/L: MICs alone (A. baumannii UNT239-1; [5]) | MICs alone (A. baumannii UNT239-1; [6]) | MICs combi (A. baumannii IHMA863866; [7]) | MICs alone (A. baumannii UNT191-1; [6]) | MICs alone (A. baumannii 402608-17; [5]) | MICs alone (A. baumannii 402608-17; [6]) | MICs alone (A. baumannii 402292-17; [5]) | MICs alone (A. baumannii UNT087-1; [5]) | MICs combi (A. baumannii IHMA919656; [7]) | MICs combi (A. baumannii IHMA919656; [8])
>512 mg/L: MICs alone (A. baumannii IHMA863866; [5])
100%: strains on which synergy was observed ([1]; rifabutin with colistin, CA-MHB, 16 MDR isolates)
0.5 mg/L: MICs alone ([2]; strain LAC-4, rifabutin/colistin checkerboard, CA-MHB) | MICs alone ([2]; strain LAC-4, rifampicin/colistin checkerboard) | MICs combi (A. baumannii IHMA690517; [7]) | MICs combi (A. baumannii IHMA863866; [8]) | MICs combi (A. baumannii UNT191-1; [7]) | MICs alone (A. baumannii HUMC1; [5]) | MICs alone (A. baumannii HUMC1; [6]) | MICs alone (A. baumannii UNT238-1; [6]) | MICs alone (A. baumannii UNT087-1; [6]) | MICs alone (A. baumannii UNT091-1; [5]) | MICs alone (A. baumannii UNT091-1; [6]) | MICs alone (A. baumannii 401046-18; [5])
0.25 mg/L: MICs combi (A. baumannii UNT239-1; [7]) | MICs combi (A. baumannii UNT239-1; [8]) | MICs combi (A. baumannii UNT191-1; [8]) | MICs alone (A. baumannii UNT238-1; [5]) | MICs combi (A. baumannii 402608-17; [7]) | MICs combi (A. baumannii 402608-17; [8]) | MICs alone (A. baumannii 402292-17; [6]) | MICs combi (A. baumannii 402292-17; [7]) | MICs combi (A. baumannii UNT087-1; [7]) | MICs alone (A. baumannii 401046-18; [6]) | MICs alone (A. baumannii 401255-18; [5]) | MICs alone (A. baumannii 401255-18; [6])
32 mg/L: MICs alone (A. baumannii IHMA1013816; [6]) | MICs alone (A. baumannii IHMA867231; [5]) | MICs alone (A. baumannii IHMA867231; [6])
2 mg/L: MICs alone (A. baumannii UNT191-1; [5])
at least 16 fold: reduction of colistin MICs ([1]; in combination with rifabutin, colistin resistant strains, CA-MHB)
synergy (synergy (FICI≤0.5)): Interpretation [2, 4]
4 mg/L: MICs combi (A. baumannii IHMA867231; [7]) | MICs combi (A. baumannii IHMA867231; [8])
0.254: FICI [2, 4]
16 mg/L: MICs alone (A. baumannii IHMA690517; [5]) | MICs alone (A. baumannii IHMA690517; [6]) | MICs alone (A. baumannii IHMA1013816; [5])
<0.5 mg/L: MICs combi (A. baumannii IHMA690517; [8]) | MICs combi (A. baumannii IHMA1013816; [7]) | MICs combi (A. baumannii IHMA1013816; [8])
0.06 mg/L: MICs combi (A. baumannii UNT238-1; [7]) | MICs combi (A. baumannii 401046-18; [8]) | MICs combi (A. baumannii 401255-18; [7]) | MICs combi (A. baumannii 401255-18; [8])
